Where two headings read alike, the source gives them in different places.
Experiments:
Assay type in all cases: cell-based
[1] = test system: A549 cells; test: in vitro antiproliferation assay, A549 (lung); details: A549 (lung) cells
Outline: (§1)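 IC50 values came from standard antiproliferation testing in cultured tumour cells; the A549 and H1299 lines are of lung origin.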

[2] = test system: HCT116; test: in vitro antiproliferation assay, HCT116 (colon)
Experimental: The IC50 values of various compounds against a various different tumor cell lines were determined using standard in vitro antiproliferation assays. The tumor cell lines tested were as follows: A549 (lung); H1299 (lung), ACHN (kidney/p53 wt), CAKI (renal cell carcinoma), NCI-H460 (lung); HCT116 (colon/p53w0; HELA (cervix/p53 wt), HUH7 (liver/p53 wt), HUVEC (primary endothelial), LNCAP (prostate), HT-29 (colon); MCF-7 (breast); MCF-7 (breast/ER positive), MDA MB435S (breast); MDA MB231 (breast/ER negative), DU145 (prostate); BxPC-3 (pancreatic); SKOV-3 (ovarian); HepG2 (hepatic), NDHF primary normal human dermal fibroblast), SKMEL28 (breast/p53mut), SKMEL5 (breast/p53 wt), U20S (bone) and PC3 (prostate). […] A blank indicates the specified compound was not tested against the specified cell line.
Many of the compounds were tested against other cell lines. Their activity is reported in TABLE 15, below, where +”, “−”, “−/+” or “+/−” values are as described for TABLES 1-14. Where the cell line includes a value in a parenthetical, the value indicates the seeding density at which the assay was performed

[3] = test system: H1299 cells; test: in vitro antiproliferation assay, H1299 (lung); details: Table 5; in vitro antiproliferation, H1299 (lung) cells
Outline: as §1

[4] = Table 5, in vitro antiproliferation
[5] = HCT116 (colon), read-out: HCT116
[6] = Table 7, in vitro antiproliferation
[7] = Table 7, in vitro antiproliferation, colon cells, read-out: HTC116

SMILES | IC50 [2, 5] [µM] | IC50 [1, 6] [µM] | IC50 [2, 7] [µM] | other results
Cc1cc(C)cc(Nc2ncc(F)c(Nc3ccc4c(c3)OCCO4)n2)c1 [compound 527] | ≤ 20 |  |  | IC50 [1, 4]: ≤ 20 µM
O=C(c1cc2cc(Nc3ncc(F)c(Nc4ccc5c(c4)OCCO5)n3)ccc2o1)N1CCNCC1 [compound 632] | ≤ 20 | ≤ 20 | ≤ 20 | 
CCOC(=O)c1cc2cccc(Nc3ncc(F)c(Nc4cccc(O)c4)n3)c2[nH]1 [compound 648] |  | ≤ 20 | ≤ 20 | 
COC(=O)c1cc2cc(Nc3ncc(F)c(Nc4ccc(Cl)cc4)n3)ccc2o1 [compound 651] | > 20 | > 20 |  | 
COC(=O)c1cc2cc(Nc3ncc(F)c(Nc4ccc(Cl)c(Cl)c4)n3)ccc2o1 [compound 652] | > 20 | > 20 |  | 
COC(=O)c1cc2cc(Nc3ncc(F)c(Nc4ccc5c(c4)NC(=O)C(C)(C)O5)n3)ccc2o1 [compound 677] | > 20 | ≤ 20 | > 20 | 
COc1ccc(Nc2ncc(F)c(Nc3ccc(OC)c(OC)c3)n2)cc1OC [compound 710] | ≤ 20 |  |  | IC50 ([1]; in vitro antiproliferation): ≤ 20 µM
CNC(=O)COc1cccc(Nc2ncc(F)c(Nc3cccc(OC)c3)n2)c1 [compound 755] | ≤ 20 |  |  | IC50 ([1]; in vitro antiproliferation): ≤ 20 µM
COc1cc(Nc2ncc(F)c(Nc3cc(OC)cc(OC)c3)n2)cc(OC)c1 [compound 839] | ≤ 20 |  |  | IC50 ([1]; in vitro antiproliferation): ≤ 20 µM
CNC(=O)COc1cccc(Nc2ncc(F)c(Nc3cc(C)c(O)c(Cl)c3)n2)c1 [compound 991] | ≤ 20 |  |  | IC50 ([1]; antiproliferation): ≤ 20 µM

The next lines start with results.

IC50 [2, 5] [µM] | IC50 [1, 6] [µM] | IC50 [2, 7] [µM] | SMILES | other results
> 20 |  |  | Oc1c(Cl)cc(Nc2ncc(F)c(Nc3ccc4c(c3)OCCO4)n2)cc1Cl [compound 507] | IC50 [1, 4]: ≤ 20 µM
≤ 20 |  |  | Cc1cc(Nc2ncc(F)c(Nc3ccc4c(c3)OCCO4)n2)cc(C)c1Cl [compound 528] | IC50 [1, 4]: ≤ 20 µM
≤ 20 |  |  | OCc1cc(CO)cc(Nc2ncc(F)c(Nc3ccc4c(c3)OC(F)(F)C(F)(F)O4)n2)c1 [compound 534] | IC50 [3]: ≤ 20 µM
≤ 20 |  |  | OCCOc1cccc(Nc2ncc(F)c(Nc3ccc4c(c3)OCCCO4)n2)c1 [compound 581] | IC50 [1, 4]: ≤ 20 µM
 | ≤ 20 | ≤ 20 | CC(C)Oc1cccc(Nc2nc(Nc3ccc4oc(C(=O)N5CCOCC5)cc4c3)ncc2F)c1 [compound 625] | 
≤ 20 | < 20 | ≤ 20 | O=C(c1cc2cc(Nc3ncc(F)c(Nc4ccc5c(c4)OCCO5)n3)ccc2o1)N1CCOCC1 [compound 626] | 
≤ 20 | ≤ 20 | ≤ 20 | CNC(=O)c1cc2cc(Nc3ncc(F)c(Nc4ccc5c(c4)OCCO5)n3)ccc2o1 [compound 629] | 
≤ 20 | ≤ 20 | ≤ 20 | O=C(NCCO)c1cc2cc(Nc3ncc(F)c(Nc4ccc5c(c4)OCCO5)n3)ccc2o1 [compound 631] | 
≤ 20 | ≤ 20 | ≤ 20 | O=C(c1cc2cc(Nc3ncc(F)c(Nc4cccc(O)c4)n3)ccc2o1)N1CCNCC1 [compound 633] | 
> 20 | ≤ 20 | > 20 | COC(=O)c1cc2cc(Nc3ncc(F)c(Nc4cccc(O)c4)n3)ccc2o1 [compound 636] | 
≤ 20 | ≤ 20 | ≤ 20 | CCOC(=O)c1cc2cccc(Nc3ncc(F)c(Nc4ccc5c(c4)OCCO5)n3)c2[nH]1 [compound 647] | 
> 20 |  |  | Fc1cnc(Nc2cccc(Cl)c2)nc1Nc1cccc(Cl)c1 [compound 717] | IC50 ([1]; in vitro antiproliferation): ≤ 20 µM
≤ 20 |  |  | CNC(=O)COc1cccc(Nc2ncc(F)c(Nc3cccc(O)c3)n2)c1 [compound 732] | IC50 ([1]; in vitro antiproliferation): ≤ 20 µM
≤ 20 |  |  | COc1cc(Nc2nc(Nc3cc(Cl)cc(Cl)c3)ncc2F)cc(OC)c1 [compound 847] | IC50 ([1]; in vitro antiproliferation): ≤ 20 µM
≤ 20 |  |  | COc1cc(Nc2nc(Nc3cc(C)cc(C(F)(F)F)c3)ncc2F)cc(OC)c1 [compound 848] | IC50 ([1]; in vitro antiproliferation): ≤ 20 µM
